30 molecules from patent publication US8822467B2 (Ligand Pharmaceuticals Inc., priority 2009, dated 2014) can be followed below.

pIC50: −log10 of the molar value.

The target in the first test is T1, human CRTH2 (Homo sapiens, UniProt Q9Y5Y4).
T1 construct: expressed in transfected cells
T1 sequence (Q9Y5Y4 1-395): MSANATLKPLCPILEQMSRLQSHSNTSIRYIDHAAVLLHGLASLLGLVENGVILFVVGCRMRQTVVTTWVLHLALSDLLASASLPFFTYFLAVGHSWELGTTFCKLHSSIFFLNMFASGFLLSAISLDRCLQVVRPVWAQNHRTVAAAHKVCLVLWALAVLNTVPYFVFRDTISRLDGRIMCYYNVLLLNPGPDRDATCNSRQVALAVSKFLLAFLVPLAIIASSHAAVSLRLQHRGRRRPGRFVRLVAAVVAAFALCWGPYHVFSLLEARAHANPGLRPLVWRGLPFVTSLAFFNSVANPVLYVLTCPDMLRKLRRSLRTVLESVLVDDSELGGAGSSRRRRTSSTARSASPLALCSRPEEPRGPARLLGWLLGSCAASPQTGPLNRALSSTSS
Description: [35S]GTPγS binding assay (SPA) on membranes from CHO-K1 cells stably expressing human CRTH2, stimulated with 60 nM DHK-PGD2. The class given is biochemical. The note with it: membranes of CHO-K1 cells expressing human CRTH2; 60 nM DHK-PGD2; Table 1; read-out: CRTH2 hGTPγS IC50. As to the method:
[^35S]GTPγS Binding Assay
SPA [^35S]G-TPγS binding was performed on membranes from CHO-K1 cells stably expressing human CRTH2. To a white, clear-bottomed 384-well plate, 4 μg membrane protein was incubated in the binding buffer (20 mM HEPES, pH 7.4, 10 mM MgCl2, 300 mM NaCl, 0.2% BSA) with 60 nM DHK-PGD2, 500 pM [^35S]GTPγS, 10 μM GDP, and 100 μg wheat germ agglutinin-coupled SPA beads (GE Healthcare) with and without increasing concentrations of compounds. The final assay volume was 40 μL and contained 1% DMSO. Samples were incubated for 2 h at ambient temperature. Plates were centrifuged 5 min at 1500 rpm. Plates were read after an additional 4 h using the Trilux 1450 Microbeta (PerkinElmer) with a 30 sec/well reading time.
Background: GTPγS resists hydrolysis and so accumulates on activated G proteins.
As usually defined, the pIC50 is −log10 of the IC50, conventionally taken in molar units. For `CN(Cc1ccc(OCC(=O)O)c(-c2cc(F)cc(C#N)c2)c1)S(=O)(=O)c1ccc(F)cc1` [Example 64, 2-(3-cyano-5-fluorophenyl)-4-((4-fluoro-N-methylphenylsulfonamido)methyl)phenoxyacetic acid], the pIC50 was 7.92.
Regarding `CN(Cc1ccc(OCC(=O)O)c(-c2cc(F)cc(F)c2)c1)S(=O)(=O)c1ccc(F)c(Cl)c1` [Example 67, 2-(3,5-difluorophenyl)-4-((3-chloro4-fluoro-N-methylphenylsulfonamido)methyl)phenoxyacetic acid], the pIC50 is 7.89.

Staying with this test, now noted: potency class symbols; Table 2; read-out: CRTH2 hGTPγS IC50.
On to `CCS(=O)(=O)c1cccc(-c2cc(CN(C)S(=O)(=O)c3ccc(F)c(F)c3)ccc2OCC(=O)O)c1` [Example 58, 2-(3-ethylsulfonylphenyl)-4-((3,4-difluoro-N-methylphenylsulfonamido)methyl)phenoxyacetic acid], for which the pIC50 was over 7.00.
For `Cc1ccc(S(=O)(=O)N(C)Cc2ccc(OCC(=O)O)c(-c3cccc(S(C)(=O)=O)c3)c2)cc1` [Example 59, 2-(3-methylsulfonylphenyl)-4-((4-methyl-N-methylphenylsulfonamido)methyl)phenoxyacetic acid], the pIC50 is over 7.00.
On to `CN(Cc1ccc(OCC(=O)O)c(-c2cccc(S(C)(=O)=O)c2)c1)S(=O)(=O)c1ccc(F)cc1` [Example 60, 2-(3-methylsulfonylphenyl)-4-((4-fluoro-N-methylphenylsulfonamido)methyl)phenoxyacetic acid], for which the pIC50 was over 7.00.
On to `CN(Cc1ccc(OCC(=O)O)c(-c2cc(F)cc(C#N)c2)c1)S(=O)(=O)c1cccc(F)c1` [Example 61, 2-(3-cyano-5-fluorophenyl)-4-((3-fluoro-N-methylphenylsulfonamido)methyl)phenoxyacetic acid], for which the pIC50 is over 7.00.
As for `CN(Cc1ccc(OCC(=O)O)c(-c2cccc(C#N)c2)c1)S(=O)(=O)c1ccc(F)c(Cl)c1` [Example 62, 2-(3-cyanophenyl)-4-((3-chloro-4-fluoro-N-methylphenylsulfonamido)methyl)phenoxyacetic acid], the pIC50 was over 7.00.
`CN(Cc1ccc(OCC(=O)O)c(-c2cccc(C#N)c2)c1)S(=O)(=O)c1ccc(F)c(F)c1` [Example 63, 2-(3-cyanophenyl)-4-((3,4-difluoro-N-methylphenylsulfonamido)methyl)phenoxyacetic acid]: the negative logarithm of the IC50 (pIC50) was over 7.00.
Still for that read-out and setting: next, `CN(Cc1ccc(OCC(=O)O)c(-c2cc(F)cc(C#N)c2)c1)S(=O)(=O)c1ccc(F)cc1` [Example 64, 2-(3-cyano-5-fluorophenyl)-4-((4-fluoro-N-methylphenylsulfonamido)methyl)phenoxyacetic acid]: over 7.00; `CN(Cc1ccc(OCC(=O)O)c(-c2cccc(C#N)c2)c1)S(=O)(=O)c1ccc(Cl)c(F)c1` [Example 65, 2-(3-cyanophenyl)-4-((3-fluoro-4-chloro-N-methylphenylsulfonamido)methyl)phenoxyacetic acid]: over 7.00; `Cc1cc(S(=O)(=O)N(C)Cc2ccc(OCC(=O)O)c(-c3cccc(C#N)c3)c2)ccc1F` [Example 66, 2-(3-cyanophenyl)-4-((3-methyl-4-fluoro-N-methylphenylsulfonamido)methyl)phenoxyacetic acid]: over 7.00.
Take `CN(Cc1ccc(OCC(=O)O)c(-c2cc(F)cc(F)c2)c1)S(=O)(=O)c1ccc(F)c(Cl)c1` [Example 67, 2-(3,5-difluorophenyl)-4-((3-chloro4-fluoro-N-methylphenylsulfonamido)methyl)phenoxyacetic acid]: the pIC50 is over 7.00.
On the same count and under the same terms, under `CN(Cc1ccc(OCC(=O)O)c(-c2cc(F)cc(F)c2)c1)S(=O)(=O)c1cccc(Cl)c1` [Example 68, 2-(3,5-difluorophenyl)-4-((3-chloro-N-methylphenylsulfonamido)methyl)phenoxyacetic acid] stands over 7.00; under `COc1ccc(S(=O)(=O)N(C)Cc2ccc(OCC(=O)O)c(-c3cccc(S(C)(=O)=O)c3)c2)cc1` [Example 69, 2-(3-methylsulfonylphenyl)-4-((4-methoxy-N-methylphenylsulfonamido)methyl)phenoxyacetic acid], over 7.00; under `CN(Cc1ccc(OCC(=O)O)c(-c2cccc(C#N)c2)c1)S(=O)(=O)c1cccc(Cl)c1` [Example 70, 2-(3-cyanophenyl)-4-((3-chloro-N-methylphenylsulfonamido)methyl)phenoxyacetic acid], over 7.00.
As to `COc1ccc(S(=O)(=O)N(C)Cc2ccc(OCC(=O)O)c(-c3cccc(C#N)c3)c2)cc1F` [Example 71, 2-(3-cyanophenyl)-4-((3-fluoro-4-methoxy-N-methylphenylsulfonamido)methyl)phenoxyacetic acid], the pIC50 is over 7.00.
Same read-out and setting: under `CN(Cc1ccc(OCC(=O)O)c(-c2cccc(S(C)(=O)=O)c2)c1)S(=O)(=O)c1cc(F)cc(F)c1` [Example 72, 2-(3-methylsulfonylphenyl)-4-((3,5-difluoro-N-methylphenylsulfonamido)methyl)phenoxyacetic acid] stands over 7.00; under `CN(Cc1cc(-c2cccc(C#N)c2)c(OCC(=O)O)cc1Cl)S(=O)(=O)c1ccccc1` [Example 73, 2-(3-cyanophenyl)-4-((N-methylphenylsulfonamido)methyl)-5-chlorophenoxyacetic acid], over 7.00.
In the case of `CN(Cc1ccc(OCC(=O)O)c(-c2cccc(C(F)(F)F)c2)c1)S(=O)(=O)c1ccc(F)c(Cl)c1` [Example 74, 2-(3-trifluoromethylphenyl)-4-((3-chloro-4-fluoro-N-methylphenylsulfonamido)methyl)phenoxyacetic acid], the negative logarithm of the IC50 (pIC50) was over 7.00.
The same measure, in the same setting: next, `CN(Cc1ccc(OCC(=O)O)c(-c2cncc(S(C)(=O)=O)c2)c1)S(=O)(=O)c1ccc(F)cc1` [Example 75, 2-(3-methylsulfonyl-5-pyridinyl)-4-((4-fluoro-N-methylphenylsulfonamido)methyl)phenoxyacetic acid]: over 7.00; `CN(Cc1ccc(OCC(=O)O)c(-c2cc(F)cc(C#N)c2)c1)S(=O)(=O)c1cc(F)cc(F)c1` [Example 76, 2-(3-cyano-5-fluorophenyl)-4-((3,5-difluoro-N-methylphenylsulfonamido)methyl)phenoxyacetic acid]: over 7.00; `CN(Cc1cc(-c2cccc(C#N)c2)c(OCC(=O)O)cc1F)S(=O)(=O)c1ccc(F)cc1` [Example 77, 2-(3-cyanophenyl)-4-((4-fluoro-N-methylphenylsulfonamido)methyl)-5-fluorophenoxyacetic acid]: over 7.00.
Same read-out and setting: next, `CN(Cc1ccc(OCC(=O)O)c(-c2cccc(S(C)(=O)=O)c2)c1)S(=O)(=O)c1ccccc1` [Example 78, 2-(3-methylsulfonylphenyl)-4-((N-methylphenylsulfonamido)methyl)phenoxyacetic acid]: over 7.00.
Regarding `CN(Cc1ccc(OCC(=O)O)c(-c2cc(F)cc(C(F)(F)F)c2)c1)S(=O)(=O)c1ccc(F)cc1` [Example 79, 2-(3-trifluoromethyl-5-fluorophenyl)-4-((4-fluoro-N-methylphenylsulfonamido)methyl)phenoxyacetic acid], the pIC50 was over 7.00.
The same measure, in the same setting: next, `CN(Cc1ccc(OCC(=O)O)c(-c2cc(F)cc(C#N)c2)c1)S(=O)(=O)c1ccccc1` [Example 80, 2-(3-cyano-5-fluorophenyl)-4-((N-methylphenylsulfonamido)methyl)phenoxyacetic acid]: over 7.00.
Turning to `CS(=O)(=O)c1cccc(-c2cc(CNS(=O)(=O)c3ccc(F)cc3)ccc2OCC(=O)O)c1` [Example 81, 2-(3-methylsulfonylphenyl)-4-((4-fluorophenylsulfonamido)methyl)phenoxyacetic acid], the pIC50 was over 7.00.
On to `Cc1cc(S(=O)(=O)N(C)Cc2ccc(OCC(=O)O)c(-c3cc(F)cc(F)c3)c2)ccc1F` [Example 82, 2-(3,5-difluorophenyl)-4-((3-methyl-4-fluoro-N-methylphenylsulfonamido)methyl)phenoxyacetic acid], for which the pIC50 was over 7.00.
As for `CCS(=O)(=O)c1cccc(-c2cc(CN(C)S(=O)(=O)c3ccc(F)cc3)ccc2OCC(=O)O)c1` [Example 83, 2-(3-ethylsulfonylphenyl)-4-((4-fluoro-N-methylphenylsulfonamido)methyl)phenoxyacetic acid], the pIC50 is over 7.00.
Take `Cc1ccc(-c2cc(CN(C)S(=O)(=O)c3ccc(F)cc3)ccc2OCC(=O)O)cc1S(C)(=O)=O` [Example 84, 2-(3-methylsulfonyl-4-methyl-phenyl)-4-((4-fluoro-N-methylphenylsulfonamido)methyl)phenoxyacetic acid]: the pIC50 was over 7.00.
For the molecule `CN(C)S(=O)(=O)c1cccc(-c2cc(CN(C)S(=O)(=O)c3ccc(F)cc3)ccc2OCC(=O)O)c1` [Example 85, 2-(3-N,N-dimethylsulfamoylphenyl)-4-((4-fluoro-N-methylphenylsulfonamido)methyl)phenoxyacetic acid], the pIC50 is over 7.00.
On the same count and under the same terms, under `CN(Cc1ccc(OCC(=O)O)c(-c2cccc(S(C)(=O)=O)c2)c1)S(=O)(=O)c1ccc(C#N)cc1` [Example 86, 2-(3-methylsulfonylphenyl)-4-((4-cyano-N-methylphenylsulfonamido)methyl)phenoxyacetic acid] stands over 7.00; under `CN(Cc1cc(-c2cccc(C#N)c2)c(OCC(=O)O)cc1F)S(=O)(=O)c1cccc(F)c1` [Example 87, 2-(3-cyanophenyl)-4-((3-fluoro-N-methylphenylsulfonamido)methyl)-5-fluorophenoxyacetic acid], over 7.00.
